In brackets after ≈: the same amount, converted by molar mass. Read-outs that look alike come from different tables or passages of the source.
Assays:
[1] = system: duck hepatitis B virus (DHBV); assay: DHBV DNA replication in primary duck hepatocytes (dot blot hybridization); assay type: cell-based
Procedure: A series of compounds were synthesized and assayed for activity against duck hepatitis B virus (DHBV). […] Test compounds were added to the hepatocyte cultures on day 2 and maintained in culture with media changed every second day until day 12. Cell were harvested at day 14 and lysed with buffer containing 1% SDS. DNA was isolated from the lysate and dot blot hybridization was performed using a DHBV (32P) DNA probe. […]
(§1) The compounds were assayed for a) their ability to inhibit DHBV DNA replication in duck hepatocytes, b) their ability to inhibit HBV DNA replication in HepG2 2.2.15 cells, c) the cell cytotoxicity in Vero cells, the cell viability in HFF cells, d) the cell proliferation in HFF cells, and e) the T cell proliferation (purified T cells, PHA stimulated). 3-TC was used as a control.

[2] = Cell cytotoxicity in Vero cells; assay type: cell-based; details: African green monkey, Vero cells
Procedure: as §1

[3] = system: human HBV; assay: HBV DNA replication in HepG2 2.2.15 cells; assay type: cell-based, hepatitis B virus
Procedure: as §1, with “control. Additional compounds described below in the Preparative Examples section were also tested, and the results are shown in Tables 2-4 below. The reference numbers for the compounds are found in the Preparative Examples.” for “control.”

[4] = Cell viability in HFF cells (neutral red); assay type: cell-based, human; details: human, HFF cells
Procedure: (§2) Twenty-four hours prior to assay HFF cells were plated into 96 well plates at a concentration of 2.5×10^4 cells per well. […] The plates were incubated for 7 days in a CO2 incubator at 37° C. At this time the media/drug was aspirated and 200 μL/well of 0.01% neutral red in Dulbecco's Phosphate Buffered Saline (DPBS) was added. This was incubated in the CO2 incubator for 2 h, the dye was aspirated and the cells were washed using a Nunc Plate Washer. After removing the DPBS wash, […] of 50% EtOH: 1% glacial acetic acid in water was added. The plates were rotated for 15 min. and the optical densities were read at 550 nm on a plate reader.

[5] = system: HFF cells; assay: Cell proliferation assay in HFF cells; assay type: cell-based, human; details: Table 2; for IC50: Homo sapiens, HFF
Procedure: The media from the wells was then aspirated and 2 mL of each drug concentration was then added to each well. The cells were incubated in a CO2 incubator at 37° C. for 72 h. At the end of this time, the media-drug solution was removed and the cells were washed. […] The cell-media mixture was then pipetted up and down vigorously to break up the cell suspension and 0.2 mL of the mixture was added to 9.8 mL of isoton III and counted using a Coulter Counter. Each sample was counted three times with three replicate wells per sample.

[6] = system: VZV (Ellen); assay: CPE inhibition assay VZV (Ellen) in HFF cells; assay type: cell-based, varicella zoster virus; details: for EC50: Human alphaherpesvirus 3, HFF, Table 2
Procedure: (§3) Cytopathic effect (CPE) inhibition assays for HSV-1, HSV-2, HCMV and VZV were performed as follows: Low passage human foreskin fibroblasts (HFF) cells were seeded into 96 well tissue culture plates 24 h prior to use at a cell concentration of 2.5×10^4 cells per mL in 0.1 mL of minimal essential medium (MEM) supplemented with 10% fetal bovine serum (FBS). The cells were then incubated for 24 h at 37° C. in a CO2 incubator. After incubation, the medium was removed and 100 μL of MEM containing 2% FBS was added to all but the first row. In the first row, 125 μL of experimental drug was added in triplicate wells. Medium alone was added to both cell and virus control […]. After incubation, the medium was removed and 100 μl of MEM containing 2% FBS was added to all but the first row. Medium alone was added to both cell and virus control wells. 125 μl of Experimental drug was added in triplicate wells. The drug in the first row of wells was then diluted serially 1:5 throughout the remaining wells by transferring 25 μL using the Cetus Liquid Handling Machine. After dilution of drugs, 100 μL of the appropriate virus concentration was added to each well, excluding the cell control wells which received 100 μL of MEM. For HSY-1 and HSV-2 assays, the virus concentration utilized was 1000 PFU's per well. For CMV and VZV assays, the virus concentration added was 2500 PFU's per well. The plates were then incubated at 37° C. in a CO2 incubator for 3 days for HSV-1 and HSV-2, 10 days for VZV, or 14 days for CMV. After the incubation period, media was aspirated and the cells stained with a 0.1% crystal violet solution for 30 min. The stain was then removed and the plates were allowed to dry 24 h and then read on a Skatron Plate Reader at 620 nm.

[7] = system: HCMV (AD169); assay: CPE inhibition assay HCMV (AD169) in HFF cells; assay type: cell-based, human cytomegalovirus; details: for EC50: Human betaherpesvirus 5, AD169, HFF, Table 2
Procedure: as §3

[8] = system: Vero cells; assay: Cell cytotoxicity in Vero cells; assay type: cell-based
Procedure: as §1

[9] = system: HFF cells; assay: Cell viability in HFF cells (neutral red); assay type: cell-based, human
Procedure: as §2

[10] = system: HSV-1 (KOSSB) HSV-TK−; assay: microbe, parasite or virus in culture; assay type: cell-based, Herpes simplex virus type-1; details: Table 4
Procedure: as §3, with “The” for “Cytopathic effect (CPE) inhibition assays for HSV-1, HSV-2, HCMV and VZV were performed as follows: Low passage human foreskin fibroblasts (HFF) cells were seeded into 96 well tissue culture plates 24 h prior to use at a cell concentration of 2.5×10^4 cells per mL in 0.1 mL of minimal essential medium (MEM) supplemented with 10% fetal bovine serum (FBS). The”

[11] = system: HSV-1 (KOS) HSV-TK+; assay: HSV-1 (KOS) HSV-TK+ antiviral assay; assay type: cell-based, Herpes simplex virus type-1; details: Table 4
Procedure: as §3

[12] = system: Epstein-Barr Virus (EBV); assay: EBV immunofluorescence assay in DAUDI cells (P3HR-1 strain); assay type: cell-based
Procedure: The immunofluorescence assay, using monoclonal antibodies, for Epstein-Barr Virus (EBV) was performed as follows: DAUDI cells were infected with the P3HR-1 strain of EBV and the test drug was added after adsorption (45 min. at 37° C.) and washing of the cell cultures. These cultures were then incubated for 2 days in complete medium to allow viral gene expression. Following the 48 h incubation period, the number of cells in each sample were counted and smears were made. Monoclonal antibodies to the different early antigen (EA) components and VCA were than added to the cells, incubated and washed. This was followed by the addition of a fluorescein conjugated rabbit anti mouse Ig antibodies. The number of fluorescence positive cells in the smears were counted and the total number of cells in the cultures positive for EA or VCA were then calculated and compared.

[13] = system: HSV-1 (E-377); assay: CPE inhibition assay HSV-1 (E-377) in HFF cells; assay type: cell-based, Herpes simplex virus type-1; details: Table 4
Procedure: as §3

[14] = system: whole human PBLs; assay: Cell proliferation, whole human PBLs; assay type: cell-based; details: Table 1
[15] = system: HSV-2 (MS); assay: CPE inhibition assay HSV-2 (MS) in HFF cells; assay type: cell-based, Herpes simplex virus type-2; details: Table 4
Procedure: as §3

[16] = Duck hepatitis B virus, Hepatocyte, read-out: % Inh. of DHBV DNA in duck hepatocytes @ 10 μg/ml
[17] = Duck hepatitis B virus, Hepatocyte, Table 2, value in brackets, read-out: DHBV DNA in duck hepatocytes [EC50, μg/ml]

| Compound | inhibition at 10 µg/mL [1, 16] | EC50 [1, 17] | IC50 [5] | CC50 ([2]; Table 2) | CC50 at 7 days ([4]; Table 2) | EC50 [6] | EC50 [7] | also measured |
| --- | --- | --- | --- | --- | --- | --- | --- | --- |
| Nc1ccn([C@@H]2CS[C@H](CO)O2)c(=O)n1 [Compound 3-TC, lamivudine, reference compound] | 96% | 0.01 to 0.05 µg/mL |  |  |  |  |  | inhibition at 1 µg/mL ([1]; Duck hepatitis B virus, Hepatocyte, read-out: % Inhibition of DHBV DNA in duck hepatocytes @1.0 μg/ml): 95%; inhibition at 10 µg/mL ([1]; Duck hepatitis B virus, Hepatocyte, read-out: % Inhibition of DHBV DNA in duck hepatocytes @10.0 μg/ml): 100%; EC50 ([1]; Duck hepatitis B virus, Hepatocyte, Table 3a, read-out: % Inhibition of DHBV DNA in duck hepatocytes EC50): 0.07 µM; CC50 ([2]; Table 5): > 100 µg/mL; inhibition at 0.1 µg/mL ([3]; Hepatitis B virus, HepG2 2.2.15, read-out: % Inh. of human HBV DNA replication in HepG2 2.2.15 cells @ 0.1 μg/ml (left)): 90%; CC50 at 7 days ([4]; Table 5): > 100 µg/mL |
| C=C(N=[N+]=[N-])c1cn(COCCO)c(=O)[nH]c1=O [Compound 7, 1-[(2-hydroxyethoxy)methyl]-5-(1-azidovinyl)-uracil] | 84% | 0.01 to 0.1 µg/mL | > 100 µg/mL | > 100 µg/mL | > 100 µg/mL |  |  |  |
| [N-]=[N+]=NC(CCl)c1cn(COC(CO)CO)c(=O)[nH]c1=O (stereo not drawn) [Compound 10b, 1-[(2-Hydroxy-1-(hydroxymethyl)ethoxy)methyl]-5-(1-azido-2-chloroethyl)uracil] | 75% | 1 to 5 µg/mL | > 100 µg/mL | > 200 µg/mL | > 100 µg/mL | 5 µg/mL (≈ 15.6 µM) | 10 µg/mL (≈ 31.3 µM) |  |
| [N-]=[N+]=NC(CI)c1cn(COC(CO)CO)c(=O)[nH]c1=O (stereo not drawn) [Compound 10c, 1-[(2-Hydroxy-1-(hydroxymethyl)ethoxy)methyl]-5-(1-azido-2-iodoethyl)uracil] | 75% | 1 to 5 µg/mL | > 100 µg/mL | > 200 µg/mL | > 100 µg/mL | 1 µg/mL (≈ 2.43 µM) | 10 µg/mL (≈ 24.3 µM) |  |
| C=C(N=[N+]=[N-])c1cn(COC(CO)CO)c(=O)[nH]c1=O [Compound 13] |  |  |  |  |  |  |  | DHBV DNA in duck hepatocytes [EC50, μg/ml] ([1]; Table 2, value in brackets): 0.01 to 0.1 µg/mL; % Inh. of DHBV DNA in duck hepatocytes @ 10 μg/ml ([1]; Table 2, 10 μg/ml): 85.6%; Cell proliferation, HFF cells IC50 [5]: >100 µg/mL; Cell Cytotoxicity, Vero cells CC50 ([8]; Table 2): >200 µg/mL; % Inh. of human HBV DNA replication in HepG2 2.2.15 cells @ 0.01 μg/ml (right) ([3]; Table 2, 0.01 μg/ml): 17.0%; % Inh. of human HBV DNA replication in HepG2 2.2.15 cells @ 0.1 μg/ml (left) ([3]; Table 2, 0.1 μg/ml): 75.4%; Cell viability HFF cells CC50 ([9]; Table 2): >100 µg/mL |
| [N-]=[N+]=NC(CCl)c1cn(CCC(CO)CO)c(=O)[nH]c1=O (stereo not drawn) [Compound 21b, 1-[4-Hydroxy-3-(hydroxymethyl)-1-butyl]-5-(1-azido-2chloroethyl)uracil] | 84% | 0.1 to 0.5 µg/mL | > 100 µg/mL | > 200 µg/mL | > 100 µg/mL | 6 µg/mL (≈ 18.9 µM) | 1 µg/mL (≈ 3.15 µM) |  |
| C=C(N=[N+]=[N-])c1cn(CCC(CO)CO)c(=O)[nH]c1=O [Compound 26, 1-[4-Hydroxy-3-(hydroxymethyl),1-butyl]-5-(1-azidovinyl)uracil] | 93% | 0.01 to 0.05 µg/mL | > 100 µg/mL | > 200 µg/mL | > 100 µg/mL |  |  |  |
| CC1(F)C(=O)NC(=O)N2C3CC(N=[N+]=[N-])C(COC21)O3 [Compound R-13, (5R,6S)5-fluoro-O^6-5′-cyclo-5,6-dihydro-3′-azido-3′-deoxythymidine] |  |  |  |  |  |  |  | % Inhibition of DHBV DNA replication in duck hepatocytes @10 μg/ml [1]: 36.0%; CC50 ([8]; Table 1): > 700 µM; HSV-1 (KOSSB) HSV-TK− EC50 [10]: >50 µg/mL; HSV-1 (KOS) HSV-TK+ EC50 [11]: >25 µg/mL |
| CCC1(F)C(=O)NC(=O)N([C@@H]2O[C@H](CO)[C@@H](O)[C@@H]2F)C1OC (stereo partly drawn) [RC-1, 5-Ethyl-5-fluoro-6-methoxy-5,6-dihydro-2′-arabinofluoro-2′-deoxyuridine] |  |  |  |  |  |  |  | Cell Cytotoxicity, Vero cells CC50 ([8]; Table 5): >100 µg/mL; Cell viability HFF cells CC50 ([9]; Table 5): >100 µg/mL; EBV EC50 ([12]; Table 5): <0.08 µg/mL; EBV EC90 ([12]; Table 5, in parentheses): (EC90 = <0.08) μg/ml |
| (5S,6S)-5-bromo-O^6-5′-cyclo-5,6-dihydro-3′-azido-3′-deoxythymidine [Compound R-1] |  |  |  |  |  |  |  | EC50 (DHBV DNA replication in duck hepatocytes) ([1]; Table 1): (EC50 = 0.035 μg/ml; HSV-1 (E-377) EC50, μg/ml [13]: 20 μg/ml; VZV (Ellen) EC50 ([6]; Table 4): >100 µg/mL; IC50 [14]: 34 µM; HSV-2 (MS) EC50 [15]: 20 µg/mL; HSV-1 (KOSSB) HSV-TK− EC50 [10]: 1 to 10 µg/mL; HCMV (AD-169) EC50 ([7]; Table 4): 20 µg/mL; HSV-1 (KOS) HSV-TK+ EC50 [11]: 10 to 25 µg/mL; EBV EC50 ([12]; Table 4): 1.4 µg/mL |

— US7589077B2, “Antiviral nucleosides” (priority 2001, dated 2009)
